Source: PubChem BioAssay AID623936 (Southern Research Specialized Biocontainment Screening …, 2012)

System: Vero 76 cells viability (cytotoxicity)
Test: Vero 76 cell cytotoxicity, dose response, cytotoxicity control, set 4 (AID 623936)

CN(C(=O)Cc1cccs1)c1nc2c(s1)CCCC2
CC50: 18.5 µM
